Reference: patent US10342796B2, “Acrylanilide derivative, preparation method, and applications thereof in pharmacy” (Ancureall Pharmaceutical (Shanghai) Co., Ltd., priority 2015, dated 2019)

What was measured:
[1] = system: H1975 tumor cells; experiment: In vivo tumor growth inhibition, xenograft; set-up: species or system Bab/c nude mice; details: Mus musculus, NCI-H1975, po, 456 h; 25 mg/kg intragastric once daily, day 19; read-out: TGI (%) H1975
Method in brief: (§1)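 Female Bab/c nude mice (6–8 weeks) carried subcutaneous H1975, PC-9 or NCI-N87 xenografts and were dosed from 100–200 mm^3 tumors. Dosing was 25 mg/kg intragastrically once daily in a PEG400/Tween-80/propylene glycol suspension for up to 30 days. TGI was derived from caliper volumes (½ab^2) versus vehicle.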

[2] = system: HER2/ErbB2 amplified cell line N87; experiment: In vivo tumor growth inhibition, xenograft; set-up: species or system Bab/c nude mice; details: Mus musculus, po, 456 h, 25 mg/kg intragastric once daily, day 19, read-out: TGI (%)
Method in brief: as §1

[3] = system: PC-9 tumor cells; experiment: In vivo tumor growth inhibition, xenograft; set-up: species or system Bab/c nude mice; details: Mus musculus, po, 456 h; 25 mg/kg intragastric once daily, day 19; read-out: TGI (%) PC-9
Method in brief: as §1

[4] = system: A375 (EGFR wt, BRAF V600E); experiment: Growth inhibition GI50 in vitro (CCK8/MTT, 72 h); type: cell-based; details: Homo sapiens, A-375; A375, EGFR wt, BRAF V600E; read-out: GI50
Text: EGFR wild type cell lines: human epidermal cancer cell line A431 (EGFR WT, amplification and high expression, from Shanghai Cell Bank of Chinese Academy of Sciences and ATCC), NSCLC cell lines NCI-H460 (EGFR WT, Kras G61H and PI3KCA E545K mutants, ATCC) and NCI-H1299 (EGFR WT, ATCC), melanoma cell line A375 (EGFR WT and BRAF V600E mutant, from Shanghai Cell Bank of Chinese Academy of Sciences, ATCC), human lung cancer cell line NCI-H292 (EGFR WT, from human lung mucoepidermoid carcinoma/lymphatic metastasis, purchased from Shanghai Cell Bank of Chinese Academy of Sciences) were cultured with 1×RPMI1640 complete medium which was supplement with 10% FBS. NSCLC cell line A549 (EGFR WT and Kras G12S mutant, from Shanghai Cell Bank of Chinese Academy of Sciences) was cultured with 1×Ham'S F12K complete medium which was supplement with 10% FBS, 1% double-antibiotics and 2 mM glutamine.
(§2) The suspension cells were collected by centrifugation. The supernatant was discard and the cell pellet was resuspended and counted. Different cell concentrations (5˜10×10^4 cells/mL) were prepared according to the growth cycle of each cell line and then seeded on a 96-well plate (Corning), 100 μL/well. The cells were incubated over night at 37° C., 5% CO2. The compounds were added to the cells on the second day with 2 wells in parallel. The final concentration of organic solvent shall not exceed 1%. The cells were continually incubated for 72 h, and then subjected to MTT assay.
(§3) The present compounds and the reference compounds were dissolved with DMSO (Sigma), respectively. […] The storage concentration of compounds was 10 mM and kept at −20° C. They were diluted by 2 times or 10 times with serial dilution before using.
(§4) Dojindo CCK8 reagent kit was used as MTT assay. […] FC meter was used as microplate reader.
(§5) Adherent cell culture medium was discard and immediately replaced with fresh prepared medium which contains 10% CCK8 reagent (100 μL/well). For the suspension cells, CCK8 was directly added to 10% of the final concentration. The cells were continually incubated for 1˜4 h. When the color of control wells turned to dark yellow, the absorption value was measured at OD450 nm. The cell growth rate was calculated according to the following formula: cell growth rate (%)=100*(T−T0)/(C−T0), T=optical density of drug treatment cell well—optical density of blank control well; T0=optical density of cell well before drug treatment—optical density of blank control well; C=optical density of cell well of solvent control group—optical density of blank control well. […] The experiment was independently repeated 1˜3 times, and subject to biological statistical analysis.
(§6) Growth inhibition assay was conducted in the cell lines shown Table 14 with the different oncogene mutations. Each compound started at 1000 nM as an initial concentration and was diluted by 2 times with serial dilution to 0.03 nM.

[5] = system: H2228 (EML4-ALK); experiment: Growth inhibition GI50 in vitro (CCK8/MTT, 72 h); type: cell-based; details: Homo sapiens, NCI-H2228, H2228, EGFR wt
[6] = system: Karpas-299 (NPM-ALK); experiment: Growth inhibition GI50 in vitro (CCK8/MTT, 72 h); type: cell-based; details: Homo sapiens, Karpas-299, EGFR wt
[7] = system: H1581 (FGFR1 amp); experiment: Growth inhibition GI50 in vitro (CCK8/MTT, 72 h); type: cell-based; details: Homo sapiens, NCI-H1581, H1581, EGFR wt
Procedure: (§7) Human NSCLC cell line NCI-H1581(ATCC) contains FGFR1 gene amplification and high expression. Human gastric cancer cell line SNU-16(ATCC) contains FGFR2 gene amplification and high expression. They were cultured with 1×RPMI1640 complete medium (10% FBS), respectively.
as §2, §3, §4, §5, §6

[8] = system: SNU-16 (FGFR2 amp); experiment: Growth inhibition GI50 in vitro (CCK8/MTT, 72 h); type: cell-based; details: Homo sapiens, SNU-16, EGFR wt
Procedure: as §7, §2, §3, §4, §5, §6

| Compound | inhibition in vivo at 25 mg/kg [1] [%] | inhibition in vivo at 25 mg/kg [2] [%] | inhibition in vivo at 25 mg/kg [3] [%] | GI50 [4] [µM] | GI50 [5] [µM] | GI50 [6] [µM] | GI50 [7] [µM] | GI50 [8] [µM] |
| --- | --- | --- | --- | --- | --- | --- | --- | --- |
| C=CC(=O)Nc1cc(Nc2nccc(-n3ccc4c(OC)cccc43)n2)c(OC)cc1N(C)CCN(C)C [Compound 99, N-(5-(4-(4-methoxyl-1H-indol-1-yl)-pyrimidin-2-ylamino)-2-(2-(dimethylamino-ethyl)-methyl-amino)-4-methoxyl-phenyl)-acrylamide] | 94.6 | 95.4 | 95.8 | – | – | – | – | – |
| C=CC(=O)Nc1cc(Nc2ncnc(Nc3cccc(Br)c3)n2)c(OC)cc1N(C)CCN(C)C [Compound 115, N-(5-(4-(3-bromo-phenylamino)-[1,3,5]triazin-2-ylamino)-2-((2-dimethylamino-ethyl)-methyl-amino)-4-methoxyl-phenyl)-acrylamide] | 59.1 | 97.8 | 97.1 | – | – | – | – | – |
| C=CC(=O)Nc1cc(Nc2cc(-c3cn(C(C)C)c4ccccc34)ncn2)c(OC)cc1N(C)CCN(C)C [Compound 183] | 97.4 | 97.7 | 98.8 | > 1 | > 0.5 | > 1 | > 1 | > 1 |
| C=CC(=O)Nc1cc(Nc2cc(-c3cn(C(C)C)c4ccc(F)cc34)ncn2)c(OC)cc1N(C)CCN(C)C [Compound 191, N-(5-(6-(5-fluoro-1-isopropyl-1H-indol-3-yl)-pyrimidin-4-ylamino)-4-methoxyl-2-((2-dimethylamino-ethyl)-methyl-amino)-phenyl)-acrylamide] | 99.3 | 96.6 | 98.8 | – | – | – | – | – |
